Source: patent US20040181820A1, “Nucleic acids for transforming fish cells and methods for their use” (priority 2001, published 2004)
Where two headings read alike, the source gives them in different places.

How the values were obtained:
EPC cells = conditions: 100, 150, or 200 μM
Protocol: Persistence of a DNA suicide vector (constructed according to Example 21) in transfected cells was assessed by a reverse transcriptase reaction coupled to PCR (RT-PCR). […] Approximately 24 hours after transfection, the cells were treated with non-toxic concentrations of ZnCl2 (100, 150, or 200 μM). Control cells were left untreated.
At 48 hours after the ZnCl2 addition, total RNA was isolated and an RT-PCR assay using IHNV-G specific primers (5′-[sequence]-3′ provided by SEQ. ID. NO: 2 and 5′-[sequence] [sequence]-3′ provided by SEQ. ID. NO: 3) was performed. PCR conditions were: 94° C. 30 sec, 55° C. 1 min and 72° C. 2 min.

rainbow trout fry = conditions: for mortality of rainbow trout fry: 48 hours, fry 0.8 g
Protocol: Three different concentrations of ZnCl2 (1 μM, 10 μM, 100 μM) were assayed and analyzed for their toxic effects in rainbow trout fry (0.8 g).
Different concentrations of ZnCl2(10 mM, 5 mM, 2.5 mM, 1 mM, 100 μM, […] and 1 μM) were assayed and observed for their toxic effect in rainbow trout. […] After 30 days post-challenge, the correct dose (10 μM ZnCl2) is added to 90 fish per treatment. After 48 hours, PCR analysis with IHNV G and M specific primers is performed to verify that the DNA vaccines have been totally eliminated from muscle tissue of the vaccinated and Zinc exposed fish.

[1] = tested on: epithelioma papulosum cyprini cells (EPC)
Protocol: In vitro experiments in epithelioma papulosum cyprini cells (EPC) were performed to verify the mechanisin of action of the “suicide vectors”.
Cell transfection assays were made using Lipofectamine Plus following the instructions of the manufacturer (Gibco, BRL, Gaithersburg, Md.). After 48 hours, the cells were treated with 100 μM ZnCl2, an inducer of the MT promoter.
(100 μM). Cells transfected with the different constructs were left uninduced (a,d) or were treated with […] of ZnCl2 at 48 h. post-transfection (b,c,e,f).

fish cells = assay: Zinc induction of metallothionein promoter in fish cells (Example 14); assay type: cell-based; conditions: 100 μM zinc dose
[2] = tested on: rainbow trout MT promoter; assay: pMT-CAT reporter in medaka hatchlings with and without zinc (Example 14); assay type: in vivo; conditions: medaka injected with pMT-CAT plasmid, stimulated with zinc vs unstimulated
Protocol: The activity of the rainbow trout MT promoter was examined by microinjecting plasmids containing pMT operably linked to the CAT reporter into fertilized eggs of medaka, as described in Inoue, et al., Supra. CAT activities were determined in hatchlings with and without stimulation with zinc. Only small trace levels of CAT activity were detected in unstimulated fish, but CAT activity increased in fish stimulated with zinc.

Structure (SMILES)	toxicity of ZnCl2 to transfected EPC cells (EPC cells)	mortality of rainbow trout fry (rainbow trout fry; 1 μM and 10 μM in water)	mortality of rainbow trout fry (rainbow trout fry; 100 μM in water)	concentrations toxic for rainbow trout fry (rainbow trout fry; fry 1 g)	effect of ZnCl2 on untransfected EPC control cells [1]	toxicity in fish cells (fish cells)	nucleic acid expression mediated by the metallothionein promoter (fish cells; fish cells)	CAT activity in hatchlings [2]
[Cl-].[Cl-].[Zn+2] [ZnCl2]	non-toxic	no mortalities	all fish immersed in 100 μM ZnCl2 had died	higher than 10 μM	not obviously affected			
[Zn] [zinc]						without toxicity	induces	increased
